Like-named read-outs stand apart in the source and are kept apart here. Numbered stars: 1 amine (or outer) side, 2 acyl side, 3 side chain; on linkers, the order of the positions; unused ones are H or OH. Square brackets hold non-standard residues; d marks the D form. Peptide text beside a SMILES is read from it. * marks the point of attachment. dNMeY = CN[C@H](Cc1ccc(O)cc1)C(=O)O; X1 = O=C([C@H]1C=CCCN1[*:1])[*:2]; dNMeF = CN[C@H](Cc1ccccc1)C(=O)O; hPhe = N[C@@H](CCc1ccccc1)C(=O)O; dOrn = NCCC[C@@H](N)C(=O)O; Pip = O=C(O)[C@@H]1CCCCN1; dPip = O=C(O)[C@H]1CCCCN1; ClZ = O=C(OCc1ccccc1Cl)*; Orn = NCCC[C@H](N)C(=O)O; Cbz = O=C(OCc1ccccc1)*; Bn = c1ccc(C*)cc1
Experiments:
uterine OT receptors = molecular target: T1, uterine OT receptors (Rattus norvegicus, UniProt P70536); assay: [^3 H]OT binding to uterine OT receptors, crude membrane preparation of uteri from DES-treated rats; conditions: for IC50: rat uterus membranes, 1 nM [^3 H]OT, read-out: Receptor Binding Results IC50 (nM) [^3 H]OT; for inhibition at 1 µM / inhibition at 0.1 µM: 1 h, read-out: [^3 H]OT: percent inhibition of radioligand at the given concentration; for inhibition at 1 µM: @ 1,000 (nM); for inhibition at 0.1 µM: @ 100 (nM)
T1 construct: from tissue; host or cells: uterus of DES-treated rats, crude membranes
T1 sequence (P70536 1-388): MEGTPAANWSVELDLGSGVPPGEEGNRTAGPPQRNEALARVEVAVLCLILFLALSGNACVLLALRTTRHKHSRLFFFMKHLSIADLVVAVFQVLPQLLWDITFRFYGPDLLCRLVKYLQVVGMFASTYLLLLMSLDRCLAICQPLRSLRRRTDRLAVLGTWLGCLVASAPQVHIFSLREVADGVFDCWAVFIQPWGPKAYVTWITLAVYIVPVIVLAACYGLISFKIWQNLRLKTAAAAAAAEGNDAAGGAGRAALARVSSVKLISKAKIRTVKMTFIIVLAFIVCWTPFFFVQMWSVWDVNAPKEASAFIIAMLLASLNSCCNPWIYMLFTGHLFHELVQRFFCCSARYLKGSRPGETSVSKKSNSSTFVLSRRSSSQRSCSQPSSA
Description: Competition studies were conducted at equilibrium (60 minutes; 22° C.) using 1 nM [^3 H]OT in the following assay buffer: 50 mM Tris-HCl, 5 mM MgCl2, and 0.1% BSA, pH 7.4.

AVP-V1 sites = molecular target: T2, AVP-V1 sites (Rattus norvegicus, UniProt P30560); assay: [^3 H]AVP binding to crude membrane preparation of male rat liver (AVP-V1 sites)
T2 construct: crude membrane preparation of male rat liver (AVP-V1 sites); from tissue; host or cells: male rat liver, crude membranes
T2 sequence (P30560 whole entry): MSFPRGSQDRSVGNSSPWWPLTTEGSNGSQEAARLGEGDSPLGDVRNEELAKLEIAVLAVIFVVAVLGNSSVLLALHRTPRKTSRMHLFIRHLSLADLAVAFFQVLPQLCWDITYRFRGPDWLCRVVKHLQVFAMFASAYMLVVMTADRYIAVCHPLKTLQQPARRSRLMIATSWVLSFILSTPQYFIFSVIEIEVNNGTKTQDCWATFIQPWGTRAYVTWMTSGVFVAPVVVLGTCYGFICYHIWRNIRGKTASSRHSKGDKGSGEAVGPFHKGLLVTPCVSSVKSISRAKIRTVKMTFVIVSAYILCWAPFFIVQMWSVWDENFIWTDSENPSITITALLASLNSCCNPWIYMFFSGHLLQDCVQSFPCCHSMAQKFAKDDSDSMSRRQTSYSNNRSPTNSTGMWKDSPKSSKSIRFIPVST
Description: (§1) Nonspecific binding (5-10% of the total binding) was determined using 10 μM unlabeled AVP, and the binding reaction was terminated by filtration as described above for the [^3 H]OT binding assay.

AVP-V2 sites = molecular target: T3, AVP-V2 sites (Rattus norvegicus, UniProt Q00788); assay: [^3 H]AVP binding to crude membrane preparation of male rat kidney medulla (AVP-V2 sites)
T3 construct: male rat liver (AVP-V1 sites) or kidney medulla (AVP-V2 sites); from tissue; host or cells: male rat kidney medulla, crude membranes
T3 sequence (Q00788 whole entry): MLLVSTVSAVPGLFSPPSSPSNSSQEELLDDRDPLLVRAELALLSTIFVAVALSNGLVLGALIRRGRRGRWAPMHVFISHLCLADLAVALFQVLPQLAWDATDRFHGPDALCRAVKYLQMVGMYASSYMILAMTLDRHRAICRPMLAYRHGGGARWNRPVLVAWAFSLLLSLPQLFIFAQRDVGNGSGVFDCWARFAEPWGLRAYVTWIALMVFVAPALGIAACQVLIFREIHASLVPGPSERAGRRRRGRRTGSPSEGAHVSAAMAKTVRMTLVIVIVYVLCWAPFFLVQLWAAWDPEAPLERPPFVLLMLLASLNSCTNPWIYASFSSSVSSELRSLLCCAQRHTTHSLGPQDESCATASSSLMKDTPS
Description: as §1

[1] = Receptor Binding Results IC50 (nM) [^3 H]-AVP-V1
[2] = rat kidney medulla membranes, 2 nM [^3 H]AVP, read-out: Receptor Binding Results IC50 (nM) [^3 H]-AVP-V2
[3] = read-out: Receptor Binding Results IC50 (nM) [^3 H]-AVP-V1
[4] = read-out: Receptor Binding Results IC50 (nM) [^3 H]-AVP-V2

| Compound | IC50 (uterine OT receptors) | IC50 (AVP-V1 sites; [1]) | IC50 (AVP-V2 sites; [2]) | IC50 (AVP-V1 sites; [3]) | IC50 (AVP-V2 sites; [4]) | inhibition at 1 µM (uterine OT receptors) | inhibition at 0.1 µM (uterine OT receptors) | IC50 (AVP-V2 sites; Receptor Binding Results IC50 (nM) [^3 H]-AVP-V2) |
| --- | --- | --- | --- | --- | --- | --- | --- | --- |
| CC[C@H](C)[C@@H]1NC(=O)[C@@H](Cc2ccccc2)NC(=O)[C@@H]2CCCN2C(=O)[C@@H](Cc2ccccc2)N(C)C(=O)[C@@H]2CCCCN2C(=O)[C@H]2C=CCCN2C1=O [Example 24, Cyclo[D-phenylanyl-L-isoleucyl-D-(3,4-dehydro)-pipecolyl-L-pipecolyl-D-(N^α methyl)phenyalanyl-L-prolyl]] (cyclo(I[X1][Pip][dNMeF]P[dF])) | 640 nM | > 10000 nM | 10000 nM |  |  |  |  |  |
| CC[C@H](C)[C@@H]1NC(=O)[C@@H](Cc2ccccc2)NC(=O)[C@@H]2CCCN2C(=O)[C@@H](Cc2c[nH]c3ccccc23)NC(=O)[C@@H]2CCCCN2C(=O)[C@H]2CCCCN2C1=O [Example 25, Cyclo[D-phenylalanyl-L-isoleucyl-D-pipecolyl-L-pipecolyl-D-trytophanyl-L-prolyl]] (cyclo(I[dPip][Pip][dW]P[dF])) | 120 nM |  |  | 3000 nM | 3900 nM |  |  |  |
| CC[C@H](C)[C@@H]1NC(=O)[C@@H](Cc2ccccc2)NC(=O)[C@@H]2CCCN2C(=O)[C@@H](CCCCNC(=O)OCc2ccccc2Cl)NC(=O)[C@@H]2CCCCN2C(=O)[C@H]2CCCCN2C1=O [Example 26, Cyclo[D-phenylalanyl-L-isoleucyl-D-pipecolyl-L-pipecolyl-D-(2-chlorocarbobenzyloxy)-lysyl-L-prolyl]] (cyclo(I[dPip][Pip][dK](ClZ)P[dF])) |  | 10000 nM | 10000 nM |  |  | 86% |  |  |
| CC[C@H](C)[C@@H]1NC(=O)[C@@H](Cc2ccccc2)NC(=O)[C@@H]2CCCN2C(=O)[C@@H](CCCNC(=O)OCc2ccccc2)NC(=O)[C@@H]2CCCCN2C(=O)[C@H]2CCCCN2C1=O [Example 27, Cyclo[D-phenylalanyl-L-isoleucyl-D-pipecolyl-L-pipecolyl-D-(carbobenzyloxy)-ornithyl-L-prolyl]] (cyclo(I[dPip][Pip][dOrn](Cbz)P[dF])) |  | 10000 nM | 10000 nM |  |  | 79% |  |  |
| CC[C@H](C)[C@@H]1NC(=O)[C@@H](Cc2ccccc2)NC(=O)[C@@H]2CCCN2C(=O)[C@@H](Cc2ccc(OCc3ccccc3)cc2)N(C)C(=O)[C@@H]2CCCCN2C(=O)[C@H]2CCCCN2C1=O [Example 28, Cyclo[D-phenylalanyl-L-isoleucyl-D-pipecolyl-L-pipecolyl-D-(N^α methyl-O-Benzyl)-tyrosyl-L-prolyl]] (cyclo(I[dPip][Pip][dNMeY](Bn)P[dF])) |  | > 10000 nM | 10000 nM |  |  |  | 28% |  |
| CC[C@H](C)[C@@H]1NC(=O)[C@@H](Cc2c[nH]c3ccccc23)NC(=O)[C@@H]2CCCN2C(=O)[C@@H](Cc2c[nH]c3ccccc23)NC(=O)[C@H](CCCCNC(=O)OCc2ccccc2)NC(=O)[C@H]2CCCCN2C1=O [Example 29, Cyclo[D-tryptophanyl-L-isoleucyl-D-pipecolyl-L-(carbobenzloxy)lysyl-D-tryptophanyl-L-prolyl]] (cyclo(I[dPip]K(Cbz)[dW]P[dW])) |  | > 10000 nM | > 10000 nM |  |  |  | 32% |  |
| CC[C@H](C)[C@@H]1NC(=O)[C@@H](Cc2c[nH]c3ccccc23)NC(=O)[C@@H]2CCCN2C(=O)[C@@H](Cc2ccccc2)N(C)C(=O)[C@@H]2CCCCN2C(=O)[C@H]2CCCCN2C1=O [Example 30, Cyclo[D-tryptophanyl-L-isoleucyl-D-pipecolyl-L-pipecolyl-D(N^α methyl)phenylalanyl-L-prolyl]] (cyclo(I[dPip][Pip][dNMeF]P[dW])) | 20 nM |  |  | 12000 nM | 747 nM |  |  |  |
| CN1C(=O)[C@@H]2CCCCN2C(=O)[C@H]2CCCCN2C(=O)[C@H](Cc2ccccc2)NC(=O)[C@@H](Cc2c[nH]c3ccccc23)NC(=O)[C@@H]2CCCN2C(=O)[C@H]1Cc1ccccc1 [Example 31, Cyclo[D-Tryptophanyl-L-phenylalanyl-D-pipecolyl-L-pipecolyl-D-(N^α -methyl)phenylalanyl-L-prolyl]] (cyclo(F[dPip][Pip][dNMeF]P[dW])) | 100 nM | > 10000 nM |  |  |  |  |  | > 1000 nM |
| CN1C(=O)[C@@H]2CCCCN2C(=O)[C@H]2CCCCN2C(=O)[C@H](CCc2ccccc2)NC(=O)[C@@H](Cc2c[nH]c3ccccc23)NC(=O)[C@@H]2CCCN2C(=O)[C@H]1Cc1ccccc1 [Example 32, Cyclo[D-trytophanyl-L-homophenylalanyl-D-pipecolyl-L-pipecolyl-D-(N^α methyl)phenylalanyl-L-prolyl]] (cyclo(P[dW][hPhe][dPip][Pip][dNMeF])) | > 1000 nM | > 10000 nM | > 10000 nM |  |  |  |  |  |
| CC[C@H](C)[C@@H]1NC(=O)[C@@H](Cc2c[nH]c3ccccc23)NC(=O)[C@@H]2CCCN2C(=O)[C@@H](Cc2ccc(OCc3ccccc3)cc2)N(C)C(=O)[C@@H]2CCCCN2C(=O)[C@H]2CCCCN2C1=O [Example 33, Cyclo[D-tryptophanyl-L-isoleucyl-D-pipecolyl-L-pipecolyl-D-(N^α methyl-O-benzyl)tyrosyl-L-prolyl]] (cyclo(I[dPip][Pip][dNMeY](Bn)P[dW])) | 100 nM | > 10000 nM | > 10000 nM |  |  |  |  |  |
| CC[C@H](C)[C@@H]1NC(=O)[C@@H](Cc2c[nH]c3ccccc23)NC(=O)[C@@H]2CCCN2C(=O)[C@@H](Cc2ccccc2)N(C)C(=O)[C@H](CCCNC(=O)OCc2ccccc2)NC(=O)[C@H]2CCCCN2C1=O [Example 34, Cyclo[D-trytophanyl-L-isoleucyl-D-pipecolyl-L-(carbobenzyloxy)ornithyl-D-(N^α methyl)phenylalanyl-L-prolyl]] (cyclo(I[dPip][Orn](Cbz)[dNMeF]P[dW])) | 100 nM | > 1000 nM | 10000 nM |  |  |  |  |  |
| CC[C@H](C)[C@@H]1NC(=O)[C@@H](Cc2c[nH]c3ccccc23)NC(=O)[C@@H]2CCCN2C(=O)[C@@H](Cc2ccccc2)N(C)C(=O)[C@H](CCCCNC(=O)OCc2ccccc2)NC(=O)[C@H]2CCCCN2C1=O [Example 35, Cyclo[D-tryptophanyl-L-isoleucyl-D-pipecolyl-L-(carbobenzyloxy)lysyl-D-(N^α Methyl)phenylalanyl-L-prolyl]] (cyclo(I[dPip]K(Cbz)[dNMeF]P[dW])) | > 100 nM | 10000 nM | 10000 nM |  |  |  |  |  |
| CC[C@H](C)[C@@H]1NC(=O)[C@@H](Cc2c[nH]c3ccccc23)NC(=O)[C@@H]2CCCN2C(=O)[C@@H](Cc2c[nH]c3ccccc23)NC(=O)[C@H](CCCNC(=O)OCc2ccccc2)NC(=O)[C@H]2CCCCN2C1=O [Example 36, Cyclo[D-tryptophanyl-L-isoleucyl-D-pipecolyl-L-(carbobenzyloxy)ornithinyl-D-trytophanyl-L-prolyl]] (cyclo(I[dPip][Orn](Cbz)[dW]P[dW])) | > 100 nM | > 10000 nM | 10000 nM |  |  |  |  |  |
| CC[C@H](C)[C@@H]1NC(=O)[C@@H](Cc2ccccc2)NC(=O)[C@@H]2CCCN2C(=O)[C@@H](Cc2c[nH]cn2)NC(=O)[C@H](CCCCNC(=O)OCc2ccccc2)NC(=O)[C@H]2CCCCN2C1=O [Example 37, Cyclo[D-Phenylalanyl-L-isoleucyl-D-pipecolyl-L-(carbobenzyloxy)lysyl-D-histidyl-L-prolyl]] (cyclo(I[dPip]K(Cbz)[dH]P[dF])) | > 100 nM | 10000 nM | > 10000 nM |  |  |  |  |  |
